Assay results taken from patent US20060257340A1, “Formulation for skin-lightening agents” (priority 2003, published 2006).
Entries after “also recorded” stand apart in the source; their conditions may differ. Marks after values point to notes of the source that are not given here.

Columns and labels:
[1] = test system: skin pigmentation of Yucatan swine; assay: Depigmenting effect of topical application on dark-skinned Yucatan swine (pigment grade); type: in vivo; conditions: for Mean pigment Grade +/− SD (Week 12): topical 20 μl twice daily, five days per week; for Mean pigment Grade +/− SD (Week 12) / mean pigment grade +/− SD: scale 0 to 4, 4 = normal skin color; for mean pigment grade +/− SD: collated experiments; for effect of HG/PG/DMI/EtOH vehicle on depigmenting action: HG/PG/DMI/EtOH with or without 2% (wt/wt) IPM, compared with PG/EtOH
Procedure: The following nonlimiting examples further illustrate certain preferred embodiments of the present invention. The formulations were tested experimentally on Yucatan swine with dark skin. The Yucatan pigskin shares many physiologic and morphologic characteristics with human skin. For example, as described in U.S. Pat. No. 5,470,567, the thickness and general morphology of epidermis and dermis, tritiated thymidine labeling pattern and index of epidermal cells, epidermal cell turnover time, as well as size, orientation, and distribution of vessels in skin are similar to that in humans. Varying concentrations of 4-cyclopentylresorcinol and 4-cyclohexylresorcinol were administered to the back of Yucatan swine using various carriers. Yucatan swine with dark skin were used in this study. Swine were obtained from Charles River Laboratories, Windham, Me., and Sinclair Laboratories, MO. Seven sites measuring approximately 3 cm×3 cm were marked on each side of the animal's spine, between the shoulder blade and hipbone. The sites were far enough apart so that there was no cross-over. Multiple treatments were performed on the back of each animal. Each animal in the experiment received the same treatments. Each spot was topically treated with 20 μl of test solution applied twice daily, five days per week. This amounts to the same dose of active agent. Solutions were administered by pipetting the exact volume to the designated area with a micropipette and then spreading the solution. Each spot or test site on the animal's skin was graded 3 times a week on a scale of 0 to 4 for pigment change, erythema and scaling. Treatments were continued until pigmentation was reduced to a grade 1 level (marked uniform decrease in pigmentation) or for up to 12 weeks. Results were analyzed using different types of statistical analysis, ANOVA, Kruskal-Wallis test and Dunnett's multiple comparison, as indicated below. ANOVA is a statistical test that assumes sampled data is from populations that follow a Gaussian bell-shaped distribution and which works well, especially with large numbers, even if the distribution is only approximately Gaussian. The Kruskal-Wallis test is a nonparametric test that compares three or more unpaired groups. The Dunnett's test is a procedure for comparing each experimental mean with the control mean. For each graph presented, it is indicated which statistical tests were performed.

[2] = test system: skin pigmentation of Yucatan swine; assay: Reversibility of depigmentation (repigmentation) after treatment discontinuation; type: in vivo; conditions: 6 weeks after discontinuation following 12 weeks of topical treatment; 1% 4-cyclopentylresorcinol, 2% 4-cyclohexylresorcinol in HG/DMI/PG/EtOH (5/15/40/40)
Procedure: Each spot was topically treated with 20 μl of test solution applied twice daily, five days per week. This amounts to the same dose of active agent. Solutions were administered by pipetting the exact volume to the designated area with a micropipette and then spreading the solution. Each spot or test site on the animal's skin was graded 3 times a week on a scale of 0 to 4 for pigment change, erythema and scaling. Treatments were continued until pigmentation was reduced to a grade 1 level (marked uniform decrease in pigmentation) or for up to 12 weeks. Pigmentation was monitored for 6 weeks after discontinuation of treatment following 12 weeks of topical treatment with 1% 4-cyclopentylresorcinol and 2% 4-cyclohexylresorcinol in HG/DMI/PG/EtOH (5/15/40/40).

[3] = test system: Yucatan swine skin; conditions: in vivo
Procedure: Seven sites measuring approximately 3 cm×3 cm were marked on each side of the animal's spine, between the shoulder blade and hipbone. The sites were far enough apart so that there was no cross-over. Multiple treatments were performed on the back of each animal. Each animal in the experiment received the same treatments. Each spot was topically treated with 20 μl of test solution applied twice daily, five days per week. This amounts to the same dose of active agent. Solutions were administered by pipetting the exact volume to the designated area with a micropipette and then spreading the solution. Each spot or test site on the animal's skin was graded 3 times a week on a scale of 0 to 4 for pigment change, erythema and scaling. Treatments were continued until pigmentation was reduced to a grade 1 level (marked uniform decrease in pigmentation) or for up to 12 weeks.

[4] = 2% in HG/PG/DMI/EtOH (5/40/15/40)

Row | Structure (SMILES) | Mean pigment Grade +/− SD (Week 12) ([1]; 2% in DMI/HG/PG/EtOH, 0 = complete depigmentation) | mean pigment grade +/− SD [1, 4] | mean pigment grade +/− SD ([1]; 2% in HG/PG/DMI/EtOH + 2% IPM) | mean pigment grade +/− SD ([1]; 2% in PG/EtOH (3/7)) | mean pigment grade +/− SD ([1]; 5% in PG/EtOH (5/5)) | effect of HG/PG/DMI/EtOH vehicle on depigmenting action [1] | repigmentation after discontinuation of treatment [2] | irritation [3] | pigmentation versus the same agent in PG/EtOH vehicle ([1]; 1% and 2% in HG/PG/DMI/EtOH compared with PG/EtOH) | pigmentation versus vehicle control ([1]; 1% and 2% in HG/PG/DMI/EtOH, Kruskal-Wallis test and Dunnett's multiple comparison) | Mean pigment Grade +/− SD (Week 12) ([1]; 1% in DMI/HG/PG/EtOH, 0 = complete depigmentation) | mean pigment grade +/− SD ([1]; 1% in HG/PG/DMI/EtOH (5/40/15/40)) | mean pigment grade +/− SD ([1]; 1% in HG/PG/DMI/EtOH + 2% IPM) | mean pigment grade +/− SD ([1]; 1% in PG/EtOH (3/7), 0 = complete depigmentation)
1 | Oc1ccc(C2CCCCC2)c(O)c1 [4-cyclohexylresorcinol] | 3 +/− 0* | 2.8 +/− 0.6* | 2.4 +/− 1.1* | 3.0 +/− 0.8 | 3.0 +/− 0* | improved the depigmenting action; also recorded: improved the depigmentation efficacy | signs of gradual repigmentation | No irritation was apparent |  |  |  |  |  | 
2 | Oc1ccc(C2CCCC2)c(O)c1 [4-cyclopentylresorcinol] |  | 2.0 +/− 0.7* | 1.4 +/− 0.9* | 2.4 +/− 0.9* |  | improved the depigmentation efficacy | signs of gradual repigmentation | No irritation was apparent | not statistically different | statistically different from vehicle | 2.8 +/− 0.4* | 2.8 +/−0.6* | 2.0 +/− 1.2* | 3.3 +/− 0.7
